Assay results as given in ChEMBL document CHEMBL2073975, “Inflammatory cytokines, but not bile acids, regulate expression of murine hepatic anion transporters in endotoxemia” (J Pharmacol Exp Ther, 2002).

How the values were obtained:
Format in all cases: functional, organism-based
[1] = molecular target: ATP-binding cassette sub-family C member 3 (Mus musculus, UniProt B2RX12); test: (§1) TP_TRANSPORTER: RT-PCR in vivo, liver of CD-1 mouse
[2] = molecular target: Multidrug resistance-associated protein 1 (Mus musculus, UniProt O35379); test: as §1
Multidrug resistance-associated protein 1, sequence (O35379 whole entry): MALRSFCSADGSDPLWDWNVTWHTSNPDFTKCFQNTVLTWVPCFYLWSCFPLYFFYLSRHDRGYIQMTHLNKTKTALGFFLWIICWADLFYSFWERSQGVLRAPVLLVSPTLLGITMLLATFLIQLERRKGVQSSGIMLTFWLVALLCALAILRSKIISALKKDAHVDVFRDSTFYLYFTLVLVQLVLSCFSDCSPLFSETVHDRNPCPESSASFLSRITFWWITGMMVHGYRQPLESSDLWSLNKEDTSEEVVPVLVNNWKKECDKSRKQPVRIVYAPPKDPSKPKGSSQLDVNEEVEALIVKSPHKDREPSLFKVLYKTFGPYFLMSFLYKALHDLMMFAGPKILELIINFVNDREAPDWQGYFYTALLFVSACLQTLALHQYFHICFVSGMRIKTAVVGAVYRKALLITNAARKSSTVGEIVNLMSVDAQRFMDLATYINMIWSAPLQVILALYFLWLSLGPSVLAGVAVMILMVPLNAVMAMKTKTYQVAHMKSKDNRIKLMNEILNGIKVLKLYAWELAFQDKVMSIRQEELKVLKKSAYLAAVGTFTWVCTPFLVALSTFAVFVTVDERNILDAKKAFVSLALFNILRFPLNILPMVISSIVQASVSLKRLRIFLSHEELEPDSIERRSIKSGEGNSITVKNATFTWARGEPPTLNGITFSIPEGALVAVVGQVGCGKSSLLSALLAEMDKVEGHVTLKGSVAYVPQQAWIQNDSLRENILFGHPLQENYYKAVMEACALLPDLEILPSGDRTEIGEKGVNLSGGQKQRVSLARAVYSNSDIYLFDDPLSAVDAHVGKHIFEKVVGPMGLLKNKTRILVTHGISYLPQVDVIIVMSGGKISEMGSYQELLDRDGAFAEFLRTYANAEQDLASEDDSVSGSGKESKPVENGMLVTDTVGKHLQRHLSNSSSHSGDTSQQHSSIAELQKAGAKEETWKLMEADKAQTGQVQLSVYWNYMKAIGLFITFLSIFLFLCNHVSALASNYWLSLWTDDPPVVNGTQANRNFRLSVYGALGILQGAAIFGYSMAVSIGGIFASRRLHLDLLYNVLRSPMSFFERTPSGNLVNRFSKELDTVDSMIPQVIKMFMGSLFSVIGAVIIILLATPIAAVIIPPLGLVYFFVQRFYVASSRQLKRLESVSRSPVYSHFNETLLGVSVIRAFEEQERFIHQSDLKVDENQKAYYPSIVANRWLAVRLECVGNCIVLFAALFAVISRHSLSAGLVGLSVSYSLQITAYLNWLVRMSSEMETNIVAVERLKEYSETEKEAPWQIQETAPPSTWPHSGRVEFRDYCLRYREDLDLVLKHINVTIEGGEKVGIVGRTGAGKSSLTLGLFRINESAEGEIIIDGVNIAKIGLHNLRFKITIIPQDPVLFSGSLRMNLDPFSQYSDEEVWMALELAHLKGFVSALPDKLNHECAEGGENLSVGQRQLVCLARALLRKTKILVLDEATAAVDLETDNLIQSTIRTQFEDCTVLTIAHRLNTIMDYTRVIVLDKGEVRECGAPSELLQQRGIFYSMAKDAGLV

[3] = molecular target: T1, Bile salt export pump (Mus musculus, UniProt Q9QY30); test: as §1
T1 sequence (Q9QY30 whole entry): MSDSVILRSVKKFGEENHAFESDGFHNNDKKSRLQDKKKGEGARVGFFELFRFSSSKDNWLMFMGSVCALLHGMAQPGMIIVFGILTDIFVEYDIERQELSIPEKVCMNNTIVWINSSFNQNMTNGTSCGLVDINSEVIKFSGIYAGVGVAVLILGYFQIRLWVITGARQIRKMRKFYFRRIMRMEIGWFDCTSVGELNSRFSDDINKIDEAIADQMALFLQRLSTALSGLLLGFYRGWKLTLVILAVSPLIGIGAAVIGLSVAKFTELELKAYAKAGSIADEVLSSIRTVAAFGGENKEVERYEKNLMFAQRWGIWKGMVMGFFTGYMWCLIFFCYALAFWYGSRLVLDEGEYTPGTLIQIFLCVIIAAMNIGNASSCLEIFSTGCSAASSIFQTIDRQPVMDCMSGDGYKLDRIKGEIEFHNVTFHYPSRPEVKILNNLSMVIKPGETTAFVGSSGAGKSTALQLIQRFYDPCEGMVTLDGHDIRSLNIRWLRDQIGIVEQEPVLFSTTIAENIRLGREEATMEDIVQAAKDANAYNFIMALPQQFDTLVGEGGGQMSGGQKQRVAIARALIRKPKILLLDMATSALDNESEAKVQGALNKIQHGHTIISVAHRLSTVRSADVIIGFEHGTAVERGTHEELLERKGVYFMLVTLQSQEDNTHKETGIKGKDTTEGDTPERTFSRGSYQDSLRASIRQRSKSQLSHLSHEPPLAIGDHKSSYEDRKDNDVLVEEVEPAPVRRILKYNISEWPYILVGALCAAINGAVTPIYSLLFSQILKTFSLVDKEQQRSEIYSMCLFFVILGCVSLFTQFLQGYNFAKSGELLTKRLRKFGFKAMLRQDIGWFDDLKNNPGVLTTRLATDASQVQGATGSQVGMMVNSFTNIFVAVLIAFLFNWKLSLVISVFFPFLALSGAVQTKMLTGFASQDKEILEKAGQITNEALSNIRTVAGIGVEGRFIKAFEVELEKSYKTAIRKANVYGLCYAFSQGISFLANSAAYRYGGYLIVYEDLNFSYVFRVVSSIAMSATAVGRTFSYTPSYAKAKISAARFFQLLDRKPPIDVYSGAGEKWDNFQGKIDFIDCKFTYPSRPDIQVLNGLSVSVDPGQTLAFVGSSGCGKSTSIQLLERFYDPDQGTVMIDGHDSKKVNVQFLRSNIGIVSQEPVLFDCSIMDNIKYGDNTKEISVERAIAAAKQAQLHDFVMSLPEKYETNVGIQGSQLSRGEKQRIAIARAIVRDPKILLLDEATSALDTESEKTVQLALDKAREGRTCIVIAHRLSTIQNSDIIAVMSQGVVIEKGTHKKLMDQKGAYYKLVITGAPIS

[4] = molecular target: T2, Solute carrier organic anion transporter family member 1A4 (Mus musculus, UniProt Q9EP96); test: as §1
T2 sequence (Q9EP96 whole entry): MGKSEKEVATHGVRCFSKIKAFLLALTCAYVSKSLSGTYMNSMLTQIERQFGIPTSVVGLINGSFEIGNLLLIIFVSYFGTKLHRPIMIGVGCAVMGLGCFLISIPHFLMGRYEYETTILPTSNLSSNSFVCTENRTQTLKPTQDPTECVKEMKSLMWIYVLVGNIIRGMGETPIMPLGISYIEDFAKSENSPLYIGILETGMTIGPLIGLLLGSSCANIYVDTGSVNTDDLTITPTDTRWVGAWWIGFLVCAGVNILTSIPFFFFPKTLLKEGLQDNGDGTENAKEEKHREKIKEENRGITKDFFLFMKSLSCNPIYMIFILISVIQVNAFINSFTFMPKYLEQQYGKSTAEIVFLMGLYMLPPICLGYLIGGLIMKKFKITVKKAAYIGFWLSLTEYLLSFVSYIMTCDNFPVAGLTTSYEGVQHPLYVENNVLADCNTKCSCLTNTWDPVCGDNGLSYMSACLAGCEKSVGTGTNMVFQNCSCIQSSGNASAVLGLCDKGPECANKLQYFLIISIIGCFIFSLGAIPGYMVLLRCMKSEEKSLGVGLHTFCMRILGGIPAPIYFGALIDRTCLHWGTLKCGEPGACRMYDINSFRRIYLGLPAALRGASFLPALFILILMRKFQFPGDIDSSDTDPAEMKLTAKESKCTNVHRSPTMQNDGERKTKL

[5] = molecular target: T3, Solute carrier organic anion transporter family member 1A1 (Mus musculus, UniProt Q9QXZ6); test: as §1
T3 sequence (Q9QXZ6 whole entry): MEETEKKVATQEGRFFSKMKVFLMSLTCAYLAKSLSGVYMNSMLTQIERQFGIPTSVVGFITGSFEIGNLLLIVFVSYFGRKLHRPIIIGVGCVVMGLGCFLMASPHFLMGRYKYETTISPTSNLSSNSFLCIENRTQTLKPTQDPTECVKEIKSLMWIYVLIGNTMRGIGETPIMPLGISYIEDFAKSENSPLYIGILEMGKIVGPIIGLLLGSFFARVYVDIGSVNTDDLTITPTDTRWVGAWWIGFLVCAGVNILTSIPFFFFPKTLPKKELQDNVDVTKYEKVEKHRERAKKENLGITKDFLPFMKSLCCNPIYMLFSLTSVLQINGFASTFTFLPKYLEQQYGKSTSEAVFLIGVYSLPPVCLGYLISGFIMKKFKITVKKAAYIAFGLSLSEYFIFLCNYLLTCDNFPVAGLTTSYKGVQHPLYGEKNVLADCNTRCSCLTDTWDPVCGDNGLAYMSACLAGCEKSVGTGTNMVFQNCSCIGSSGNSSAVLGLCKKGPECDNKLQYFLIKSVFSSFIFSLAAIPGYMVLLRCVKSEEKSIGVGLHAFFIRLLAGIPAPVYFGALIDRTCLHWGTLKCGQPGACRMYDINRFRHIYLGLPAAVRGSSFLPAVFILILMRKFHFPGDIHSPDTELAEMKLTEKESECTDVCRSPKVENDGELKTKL

[6] = molecular target: ATP-binding cassette sub-family C member 2 (Mus musculus, UniProt Q8VI47); test: as §1
ATP-binding cassette sub-family C member 2, sequence (Q8VI47 whole entry): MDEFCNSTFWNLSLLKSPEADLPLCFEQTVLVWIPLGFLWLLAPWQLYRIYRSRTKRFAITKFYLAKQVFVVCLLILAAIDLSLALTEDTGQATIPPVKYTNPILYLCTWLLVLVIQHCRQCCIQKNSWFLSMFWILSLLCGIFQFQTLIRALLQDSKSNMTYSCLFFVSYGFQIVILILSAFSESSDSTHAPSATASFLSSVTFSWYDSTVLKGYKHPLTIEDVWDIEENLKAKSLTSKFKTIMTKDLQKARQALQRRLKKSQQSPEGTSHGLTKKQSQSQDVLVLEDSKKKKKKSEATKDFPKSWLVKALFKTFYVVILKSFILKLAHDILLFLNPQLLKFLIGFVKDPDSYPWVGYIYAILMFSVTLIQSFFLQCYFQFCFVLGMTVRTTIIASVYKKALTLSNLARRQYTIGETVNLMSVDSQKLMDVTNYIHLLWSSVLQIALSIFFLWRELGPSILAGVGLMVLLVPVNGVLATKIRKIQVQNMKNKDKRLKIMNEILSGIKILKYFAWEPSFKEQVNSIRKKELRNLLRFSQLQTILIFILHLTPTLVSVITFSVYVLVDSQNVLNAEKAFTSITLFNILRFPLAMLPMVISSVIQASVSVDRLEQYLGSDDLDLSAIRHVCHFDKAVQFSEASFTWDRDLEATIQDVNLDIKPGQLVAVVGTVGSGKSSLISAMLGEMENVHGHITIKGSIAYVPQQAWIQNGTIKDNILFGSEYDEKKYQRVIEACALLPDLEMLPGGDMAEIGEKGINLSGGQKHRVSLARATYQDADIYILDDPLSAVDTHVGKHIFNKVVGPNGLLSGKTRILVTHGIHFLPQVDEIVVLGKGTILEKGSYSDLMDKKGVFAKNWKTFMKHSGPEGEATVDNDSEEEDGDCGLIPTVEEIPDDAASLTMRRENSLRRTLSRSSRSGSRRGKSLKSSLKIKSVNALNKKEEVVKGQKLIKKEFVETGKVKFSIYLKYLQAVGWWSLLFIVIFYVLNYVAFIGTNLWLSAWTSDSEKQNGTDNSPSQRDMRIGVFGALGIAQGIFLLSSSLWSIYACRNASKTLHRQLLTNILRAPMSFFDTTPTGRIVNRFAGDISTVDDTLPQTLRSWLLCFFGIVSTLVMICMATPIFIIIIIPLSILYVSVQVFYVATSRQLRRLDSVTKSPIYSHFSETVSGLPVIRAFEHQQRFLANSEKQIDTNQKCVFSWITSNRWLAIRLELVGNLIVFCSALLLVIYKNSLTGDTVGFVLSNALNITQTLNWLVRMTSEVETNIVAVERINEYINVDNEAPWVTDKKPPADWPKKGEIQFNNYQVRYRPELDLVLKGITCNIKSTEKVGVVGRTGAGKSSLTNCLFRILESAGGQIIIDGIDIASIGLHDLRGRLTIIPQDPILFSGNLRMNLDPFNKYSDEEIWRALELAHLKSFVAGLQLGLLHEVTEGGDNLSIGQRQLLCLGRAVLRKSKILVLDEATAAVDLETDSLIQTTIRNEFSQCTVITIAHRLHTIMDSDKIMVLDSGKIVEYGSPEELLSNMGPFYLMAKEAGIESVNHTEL

ATP-binding cassette sub-family C member 3, sequence (B2RX12 whole entry): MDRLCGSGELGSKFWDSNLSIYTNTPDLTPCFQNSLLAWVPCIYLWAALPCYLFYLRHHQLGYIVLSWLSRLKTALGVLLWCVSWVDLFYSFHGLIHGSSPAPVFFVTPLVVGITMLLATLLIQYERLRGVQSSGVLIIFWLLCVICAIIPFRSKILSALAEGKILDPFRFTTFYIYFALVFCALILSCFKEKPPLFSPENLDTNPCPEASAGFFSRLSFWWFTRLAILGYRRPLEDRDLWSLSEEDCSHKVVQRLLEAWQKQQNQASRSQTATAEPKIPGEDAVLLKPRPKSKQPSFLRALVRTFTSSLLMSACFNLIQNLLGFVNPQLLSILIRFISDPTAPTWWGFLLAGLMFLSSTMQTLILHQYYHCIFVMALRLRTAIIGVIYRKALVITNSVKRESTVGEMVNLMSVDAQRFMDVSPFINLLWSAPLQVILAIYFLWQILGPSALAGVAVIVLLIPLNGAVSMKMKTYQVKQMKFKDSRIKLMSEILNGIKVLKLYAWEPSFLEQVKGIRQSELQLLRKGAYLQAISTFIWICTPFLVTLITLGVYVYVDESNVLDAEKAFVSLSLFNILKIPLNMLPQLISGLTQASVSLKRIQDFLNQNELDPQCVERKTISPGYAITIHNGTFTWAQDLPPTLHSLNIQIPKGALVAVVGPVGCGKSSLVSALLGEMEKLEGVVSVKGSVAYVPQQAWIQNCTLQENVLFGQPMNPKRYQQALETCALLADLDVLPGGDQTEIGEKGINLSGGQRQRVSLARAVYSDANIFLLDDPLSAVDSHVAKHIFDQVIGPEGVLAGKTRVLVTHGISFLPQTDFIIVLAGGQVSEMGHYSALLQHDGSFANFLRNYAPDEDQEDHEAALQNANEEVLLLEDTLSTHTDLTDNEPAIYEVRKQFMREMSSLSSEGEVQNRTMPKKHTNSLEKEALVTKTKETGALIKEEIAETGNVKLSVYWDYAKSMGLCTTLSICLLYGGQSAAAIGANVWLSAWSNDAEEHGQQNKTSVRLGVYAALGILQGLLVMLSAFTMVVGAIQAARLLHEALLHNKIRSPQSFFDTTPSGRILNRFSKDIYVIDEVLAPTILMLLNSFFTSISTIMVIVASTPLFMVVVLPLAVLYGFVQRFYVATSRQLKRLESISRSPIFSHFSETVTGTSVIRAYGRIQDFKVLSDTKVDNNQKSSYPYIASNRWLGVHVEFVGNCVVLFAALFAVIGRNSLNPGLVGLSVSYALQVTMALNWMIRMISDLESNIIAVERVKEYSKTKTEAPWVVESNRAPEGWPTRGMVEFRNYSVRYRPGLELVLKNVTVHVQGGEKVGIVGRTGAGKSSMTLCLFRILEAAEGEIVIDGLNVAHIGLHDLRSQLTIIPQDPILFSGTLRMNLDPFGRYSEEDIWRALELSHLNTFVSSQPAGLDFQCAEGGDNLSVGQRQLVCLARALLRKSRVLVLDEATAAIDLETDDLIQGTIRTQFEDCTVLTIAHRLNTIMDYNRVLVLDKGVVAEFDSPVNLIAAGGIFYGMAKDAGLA

| Activity [1] | Activity [2] | Activity [3] | Activity [4] | Activity [5] | Activity [6] | Compound |
| --- | --- | --- | --- | --- | --- | --- |
| inducer [Decrease] | is not an inducer [-] | inducer [Decrease] | inducer [Decrease] | inducer [Decrease] | inducer [Decrease] | CCCCCCCCCCCCCC(=O)OC(CCCCCCCCCCC)CC(=O)OC1C(NC(=O)CC(CCCCCCCCCCC)OC(=O)CCCCCCCCCCC)C(OC2CC(OC(=O)CC(O)CCCCCCCCCCC)C(NC(=O)CC(O)CCCCCCCCCCC)C(O)O2)OC(CO)C1OP(=O)(O)O (stereo not given) |
|  | is not an inducer [-] | inducer [+] | is not an inducer [-] | is not an inducer [-] | is not an inducer [-] | C[C@H](CCC(=O)NCCS(=O)(=O)O)[C@H]1CC[C@H]2[C@@H]3CC[C@@H]4C[C@H](O)CC[C@]4(C)[C@H]3C[C@H](O)[C@]12C [TAURODEOXYCHOLIC ACID] |
| is not an inducer [-] |  | inducer [Decrease] | inducer [Decrease] | inducer [Decrease] | inducer [Decrease] | INTERLEUKIN 1BETA |
|  |  | inducer [Decrease] | inducer [Decrease] | inducer [Decrease] | inducer [Decrease] | INTERLEUKIN 6 |
| is not an inducer [-] |  | inducer [Decrease] | inducer [Decrease] | inducer [Decrease] | inducer [Decrease] | TURPENTINE |
